Measured values taken from PubChem BioAssay AID179 (DTP/NCI, 2004).
pEC50, pIC50: −log10 of the molar value. Several values for one entry are separate records, joined by “and”; a condition that tells them apart may be missing. Equal values may be shown once. Activity calls are given as the source filed them.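 How the source made its calls: active means compounds giving half or more protection of infected cells from virus-caused growth loss, again on retest; inactive means the rest.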

Tested on: CEM cells HIV-1 protection, formazan growth assay
Assay: NCI AIDS Antiviral Assay
Conditions: for pIC50: measured here: growth of uninfected CEM cells
Outline: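 CEM (human) cells, HIV-1 infected vs uninfected, 5-point dosing, formazan growth read-out. Retest threshold 50% protection.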

Row | Structure (SMILES) | pEC50 | pIC50 | outcome
1 | Cc1n[nH]c(C)c1N=O | < 3.70 | 5.37 | 
2 | N#Cc1c(Cl)c2cc([N+](=O)[O-])ccc2n2c1nc1ccccc12 | < 4.70 | 6.09 | 
3 | CC(=O)c1c(-c2ccco2)c(C#N)c(=S)n(C2OC(CO)C(O)C(O)C2O)c1C (centres undefined) | < 3.70 | 4.06 | 
4 | COc1ccc(-c2cc(=O)c3c(C)cc(O)cc3o2)cc1OC | < 3.70 | 3.76 | 
5 | CCSC(=O)N1c2ccc(OC)cc2C=CC1C#N (centres undefined) | < 6.16 | 7.39 | 
6 | O[C@H]1C=CC[C@H]2C(F)(F)[C@](F)(Cl)[C@@]12Cl | < 3.00 | 3.73 | 
7 | O=[N+]([O-])c1ccc(-c2cn(-c3ccc(Cl)cc3)cn2)cc1 | < 4.00 | < 4.00 | 
8 | OCC(CN1CCCCC1)(CN1CCCCC1)CN1CCCCC1 | < 4.30 | < 4.30 | 
9 | CCCNCCCC(NC(C)=O)C(=O)NCc1ccccc1 (centres undefined) | < 3.09 | < 3.09 | 
10 | COc1ccc(/C=C(\C#N)c2nc(-c3cc4ccccc4oc3=O)cs2)cc1 | 3.79 | < 3.70 | 
11 | CCOC(=O)c1ccc(Nc2nc3ccc(C(F)(F)F)cc3nc2C(=O)OCC)cc1 |  |  | inactive
12 | CCOC1OC(CO)C(O)CC1n1ccc(=O)[nH]c1=O (centres undefined) | < 3.70 | 4.01 | 
13 | CCOC(=O)C(C)(C(=O)OCC)C1(c2ccccc2)OC(=O)c2ccccc21 (centres undefined) |  |  | inactive
14 | CSc1cc(-c2ccccn2)nc(-c2ccccn2)c1.CSc1cc(-c2ccccn2)nc(-c2ccccn2)c1.[O-][Cl+3]([O-])([O-])[O-].[Zn+2] | < 3.70 | 7.20 | 
15 | Nc1cc(N)c(N)cc1N | < 3.70 | 4.42 | 
16 | O=[N+]([O-])c1ccc(SSc2ccc([N+](=O)[O-])cn2)nc1 | < 3.70 | 5.04 | 
17 | N#CC1=C(N)CCC(C#N)(c2ccccc2)C1 (centres undefined) | < 3.70 | < 3.70 | 
18 | COc1ccc(C2(O)C(S(=O)(=O)c3ccc(C)cc3)=Cc3ccc(OC)cc32)cc1 (centres undefined) | < 3.70 | < 3.70 | 
19 | CCOc1ccc(Nc2ccc(N=Nc3c(N)c(C)cc(N=Nc4ccc(-c5ccc(N=Nc6ccc(O)c(C(=O)O)c6)cc5)cc4)c3N)cc2S(=O)(=O)O)cc1 | 4.97 | 4.10 | 
20 | O=C(O)C(C(F)(F)F)C(F)(F)F (tested in a mixture with another compound) | < 3.70 | < 3.70 | 
21 | COc1ccc(C(=O)N2c3ccccc3N(C)n3cccc3C2CC(=O)O)cc1 (centres undefined) | < 3.19 | 3.63 | 
22 | O=C(CO)C1CC2C=CC1C2 (centres undefined) |  |  | inactive
23 | Cn1c(=O)c2sc3cc4c(cc3c2c2ccccc21)sc1c(=O)n(C)c2ccccc2c14 | < 4.00 | 4.21 | 

Row | Structure (SMILES) | pEC50 | pIC50 | outcome
24 | O=C(NNC(=O)c1ccncc1)c1ccncc1 | < 3.70 | < 3.70 | 
25 | CC(C)(C)C(=O)OCOP(=O)(O)OCC1CCC(N2C=CC(N)NC2=O)O1 (centres undefined) | 7.33 | 4.79 | 
26 | ClB1NB(Cl)NB(Cl)N1 | < 3.86 | < 3.86 | 
27 | O=C1C=C(N2CC2)C(=O)C(N2CC2)=C1N1CC1 | < 4.97 | 7.49 | 
28 | Cc1nnc2n1N=C(CC(=O)c1ccc(O)cc1O)CN2N | < 3.08 | < 3.08 | 
29 | C[N+](C)(C)CC(=O)N/N=C(\C(=O)Nc1ccc(Cl)cc1)C1C(=O)N(c2ccccc2)N=C1N (centres undefined) | < 4.75 | < 4.75 | 
30 | COc1ccc(NC2(Br)C(=O)NC(=O)NC2C(=O)O)cc1 (centres undefined) | < 4.70 | < 4.70 | 
31 | CC(O)C(NCNC(=O)C1=C(O)C2(O)C(=O)C3=C(O)c4c(O)cccc4C(C)(O)C3CC2C(N(C)C)C1=O)C(=O)O (centres undefined) | < 4.43 | < 4.43 | 
32 | COc1cc(Nc2cnc3ccc(C(F)(F)F)cc3n2)cc(OC)c1OC | < 4.45 | 5.16 | 
33 | CCOP(=O)(CCC(O)CNc1nc(N)nc(Cl)c1N=Nc1ccc(Cl)cc1)OCC (centres undefined) | < 3.70 | 5.19 | 
34 | CC(=O)Nc1ccc(-c2nnc(SCC(=O)Nc3ccc(Cl)cc3)o2)cc1 | < 4.05 | 5.30 | 
35 | CC(C)Cn1cnc2c(NCC(C)O)nc3ccccc3c21 (centres undefined) | < 3.70 | 4.06 | 
36 | O=C(NCCCN(CCCCN(CCCNC(=O)c1cc(S(=O)(=O)O)cc(O)c1O)C(=O)c1cc(S(=O)(=O)O)cc(O)c1O)C(=O)c1cc(S(=O)(=O)O)cc(O)c1O)c1cc(S(=O)(=O)O)cc(O)c1O | < 3.70 | 4.14 | 
37 | CCN1c2ccccc2NC(=S)c2c1n[nH]c2-c1ccccc1 | < 3.70 | 4.27 | 
38 | O=C1C=CC(=CC=C2C=CN(CCCCCCCCCCC(=O)NCCCCCCCCCCCC(=O)O)C=C2)C=C1 |  |  | inactive
39 | CCC(=O)ONC(=O)Cn1ccc([N+](=O)[O-])n1 | < 3.70 | 4.18 | 
40 | Cc1ccc(S(=O)(=O)N(C)CC(=O)c2ccccc2)cc1 | < 3.93 | < 3.93 | 
41 | Cn1c2ccccc2c(=NNc2ccccc2C(=O)O)c2ccccc21 | < 3.70 | 4.71 | 
42 | CC1=NN(C(=O)c2ccc(Cl)cc2)C(=O)/C1=C/c1ccccc1O | < 4.68 | < 4.68 | 
43 | CC1CCC23COC(=O)C2C(O)CCC3C1(C)CC(O)c1ccoc1 (centres undefined) | < 3.84 | < 3.84 | 
44 | CC1(C)C2C=CC1(C)C1(CC2)OCCO1 (centres undefined) | < 3.70 | < 3.70 | 
45 | COC(=O)c1ccccc1NC(=O)C(=O)NNC(=O)c1ccncc1 | < 3.56 | < 3.56 | 
46 | CCC1OC(=O)CC(O)C(C)C(OC2OC(C)CC(N(C)C)C2O)C(CC=O)CC(C)C(=O)/C=C/C2(C)OC2C1C (centres undefined) | < 3.70 | 4.47 | 

Row | Structure (SMILES) | pEC50 | pIC50 | outcome
47 | CC(=O)Nc1ccc(C(C2=C(O)c3ccccc3C(=O)C2=O)C2=C(O)c3ccccc3C(=O)C2=O)cc1 | < 3.70 | 4.79 | 
48 | O=C(CCc1nnc2s/c(=C\c3ccc([N+](=O)[O-])cc3)c(=O)n12)Nc1ccc(Cl)c(Cl)c1 | < 4.16 | 4.41 | 
49 | NC(=S)NNC(=O)CCC(=O)Nc1ccc(Cl)cc1Cl | < 3.97 | < 3.97 | 
50 | NC(N)=NCC[C@H](NC(=O)OCCCCCn1ccc(=O)[nH]c1=O)C(=O)O | < 3.70 | < 3.70 | 
51 | CC(=O)OCC1OC(SC2=NC(=O)CS2)C(OC(C)=O)C(OC(C)=O)C1OC(C)=O (centres undefined) | < 3.70 | 4.13 | inactive
52 | CCOP(=O)(OCC)/C(C#N)=C/c1cccc(C)c1 | < 3.47 | < 3.47 | 
53 | O=C1CN(N2CCOCC2)CC(=O)N2CCCCN12 | 4.72 | < 3.70 | 
54 | CCOC(=O)Nc1cc2c(c(N)n1)N=C(c1ccccc1)CO2 | < 4.78 | 7.03 | 
55 | COc1ccc(/C=C(\Cl)c2ccc(OC)cc2)cc1 | < 3.70 | < 3.70 | 
56 | O=[N+]([O-])c1cc2cnn(CO)c2cc1[N+](=O)[O-] | < 3.70 | 4.78 | 
57 | Cc1cc(C)c(C(=O)c2c(C)cccc2C(=O)O)c(C)c1 | < 3.70 | < 3.70 | 
58 | Cc1ccc([N+](=O)[O-])c2c(NCCC[N+](C)(C)[O-])c3ccccc3nc12 | < 5.70 | 6.50 | 
59 | COc1ccc(-c2c(-c3ccccc3)c(C)c3ccccn23)cc1 | < 3.70 | 4.37 | 
60 | CCN(CC)C(C)(C)C(=O)/C=C/c1ccc(C)cc1 |  |  | inactive
61 | CC(C)C(C(=O)O)C(=O)O | < 3.70 | < 3.70 | 
62 | Cc1ccc(C(=O)/C(C#N)=C/Nc2c(C)n(C)n(-c3ccccc3)c2=O)cc1 | < 3.70 | < 3.70 | 
63 | CCc1cccc(C)c1NC(C)=O |  |  | inactive
64 | Nc1nc(N)c2nc(CNc3ccc(C(=O)NC(CCC(=O)O)C(=O)O)cc3F)cnc2n1 (centres undefined) | < 3.70 | 7.20 | 
65 | COc1ccccc1/C(=N\OCCC(=O)O)c1cccs1 |  |  | inactive
66 | Fc1cccc(F)c1C1SCc2nc3ccccc3n21 (centres undefined) |  | 4.38 and 4.25 | 
67 | O=C(O)C12CCC(CC1=O)C2 (centres undefined) | < 3.70 | < 3.70 | 
68 | CC(=O)O[C@@H]1[C@H](OC(=O)CC(C)C)c2c(ccc3ccc(=O)oc23)OC1(C)C | 4.87 | 4.27 | 
69 | Cc1nc2c(o1)C(=Nc1ccc(I)cc1)c1ccccc1C2=Nc1ccc(I)cc1 |  |  | inactive

Row | Structure (SMILES) | pEC50 | pIC50 | outcome
70 | CCCCCCCCCCCCOc1ccc(/C(=N\N=C(N)N)c2ccccc2)c(O)c1 | < 3.70 | < 3.70 | 
71 | S=C(S)N1CCN(c2ccccc2)CC1 | < 3.70 | < 3.70 | 
72 | O=C(Nn1c(-c2ccccc2)nc2ccccc2c1=O)c1ccc(Cl)cc1 | < 3.70 | 3.92 | 
73 | CSc1nnc2sc(=S)[nH]n12 | < 3.70 | < 3.70 | 
74 | Cc1ccc(-c2nc(C)c(C(=O)Nc3ccc(Cl)cc3)s2)cc1 | < 3.70 | < 3.70 | 
75 | CCOC(=O)c1ccc(CSc2ccc(Cl)cc2)c([N+](=O)[O-])c1 | < 3.99 | < 3.99 | 
76 | O=C(O)CC[C@@]1(C(=O)O)NC(C(=O)O)Cc2[nH]cnc21 (some centres undefined) | < 3.36 | < 3.36 | 
77 | Clc1c2ccccc2[se][n+]1Cc1ccccc1 | < 4.82 | 4.91 | 
78 | CCCCCCCCCCCCCCCCc1c(C(=O)OC)nc(NC#N)[nH]c1=O | < 4.84 | < 4.84 | 
79 | COc1cc(/C=C2\C=Cc3ccccc32)cc(OC)c1OC | < 4.61 | < 4.61 | 
80 | CC(=O)/C(=C\c1ccccc1)C(=O)Nc1ccccc1 | < 4.42 | < 4.42 | 
81 | CCOC(=O)/C=C/[C@H](O[Si](c1ccccc1)(c1ccccc1)c1ccccc1)C(C)(C)C | < 3.70 | < 3.70 | 
82 | CCN1C(Cl)=NS(=O)(=O)c2ccccc21 | < 3.70 | 4.04 | 
83 | COC(=O)C1=NOC2C(=O)N(c3ccccc3)C(=O)C12 (centres undefined) | < 3.70 | < 3.70 | 
84 | O=C1CCCC1C(O)(C(F)(F)Cl)C(F)(F)Cl (centres undefined) | < 3.70 | < 3.70 | 
85 | CCC1C(c2cccc(OC)c2O)c2cc3c(cc2OC1N1CCCC1)OCO3 (centres undefined) | < 3.70 | 5.07 | 
86 | COc1ccc(C2c3ccccc3C3(O)CC2CC(=O)O3)cc1 (centres undefined) | < 3.70 | < 4.00 | 
87 | O=C(NNC(=S)Nc1ccccc1)c1csc(NC(=S)NC2CCCCC2)n1 | 5.16 | 5.13 | 
88 | CC(C)[Si](OCC/C=C/C1CCC(=O)C1C(O)C1CCCCC1)(C(C)C)C(C)C (centres undefined) |  |  | inactive
89 | CCC1(c2ccc(OC)c(OC)c2)CCN2C(=O)C(O)CC21 (centres undefined) | < 3.70 | < 3.70 | 
